In ChEMBL document CHEMBL1148617, “Design, synthesis, and structure-activity relationships of 1-,3-,8-, and 9-substituted-9-deazaxanthines at the human A2B adenosine receptor” (J Med Chem, 2006):

Experiments:
[1] = target: T1, Adenosine receptor A2b (Homo sapiens) (UniProt P29275); test: Displacement of [3H]DPCPX from recombinant human adenosine A2B receptor expressed in HEK293 cells at 0.1 uM; assay type: cell-based
T1 sequence (whole entry): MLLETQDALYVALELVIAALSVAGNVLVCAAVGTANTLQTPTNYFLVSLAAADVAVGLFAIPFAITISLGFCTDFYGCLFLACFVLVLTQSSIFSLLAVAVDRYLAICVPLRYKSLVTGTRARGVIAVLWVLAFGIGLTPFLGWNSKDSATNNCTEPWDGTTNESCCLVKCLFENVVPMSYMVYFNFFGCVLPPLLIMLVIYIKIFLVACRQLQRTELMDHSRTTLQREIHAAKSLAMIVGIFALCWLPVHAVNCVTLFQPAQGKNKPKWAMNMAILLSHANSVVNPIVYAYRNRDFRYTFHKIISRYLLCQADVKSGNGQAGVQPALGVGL

Adenosine receptor A2b = target: T2, Adenosine receptor A2b (Homo sapiens, UniProt P29275)
T2 sequence (P29275 whole entry): T1 sequence (whole entry)
Description: Binding affinity to recombinant human adenosine A2B receptor

[2] = target: T1, Adenosine receptor A2b (Homo sapiens); test: Displacement of [3H]DPCPX from recombinant human adenosine A2B receptor expressed in HEK293 cells at 0.01 uM
Adenosine receptor A2a = Adenosine receptor A2a (Homo sapiens, UniProt P29274); test: Displacement of [3H]ZM-241385 from recombinant human adenosine A2A receptor expressed in HeLa cells at 0.1 uM
Chain of Adenosine receptor A2a (P29274 whole entry): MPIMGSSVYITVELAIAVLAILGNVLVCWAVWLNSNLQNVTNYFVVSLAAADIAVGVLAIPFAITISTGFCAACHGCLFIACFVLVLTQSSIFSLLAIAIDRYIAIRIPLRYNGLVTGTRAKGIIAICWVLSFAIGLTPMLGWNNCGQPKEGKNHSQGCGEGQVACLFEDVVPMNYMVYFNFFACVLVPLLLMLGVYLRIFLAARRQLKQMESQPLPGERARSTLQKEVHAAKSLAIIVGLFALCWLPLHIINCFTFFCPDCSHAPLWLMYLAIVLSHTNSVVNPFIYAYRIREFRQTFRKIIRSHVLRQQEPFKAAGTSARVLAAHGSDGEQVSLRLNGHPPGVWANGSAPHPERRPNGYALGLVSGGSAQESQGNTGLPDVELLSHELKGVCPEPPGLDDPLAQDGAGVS

| Structure (SMILES) | inhibition [1] [%] | Ki (Adenosine receptor A2b) [nM] | inhibition [2] [%] | inhibition (Adenosine receptor A2a) [%] |
| --- | --- | --- | --- | --- |
| CC(Oc1ccc(-c2cc3c([nH]2)c(=O)n(C)c(=O)n3C)cc1)C(=O)Nc1ccc(F)cc1 (configuration not stated) | 99 | 3.89 | 76 | 70 |
| Cn1c(=O)c2[nH]c(-c3ccc(OCC(=O)Nc4nc5ccccc5[nH]4)cc3)cc2n(C)c1=O | 80 | 20 | 24 | 34 |
| CC(=O)c1ccc(NC(=O)COc2ccc(-c3cc4c([nH]3)c(=O)n(C)c(=O)n4C)cc2)cc1 | 91 | 3.55 | 65 | 36 |
| CCCn1c(=O)c2[nH]c(-c3ccc(OCC(=O)Nc4ccc(CC(=O)OCC)cc4)cc3)cc2n(C)c1=O | 35 | 132 | 10 | 0 |
| COc1cc(OCC(=O)O)ccc1-c1cc2c([nH]1)c(=O)n(C)c(=O)n2C | 3 | 1550 | – | 1 |
| CCOC(=O)COc1ccc(-c2cc3c([nH]2)c(=O)n(C)c(=O)n3C)c(OC)c1 | 10 | 2190 | – | 11 |
| O=C(COc1ccc(-c2cc3c([nH]2)c(=O)n(CC2CC2)c(=O)n3CC2CC2)cc1)Nc1ccc(Br)cc1 | 94 | – | 43 | 89 |
| CCOC(=O)c1ccc(NC(=O)COc2ccc(-c3cc4c([nH]3)c(=O)n(C)c(=O)n4C)cc2OC)cc1 | 47 | – | 10 | 0 |
| CCCn1c(=O)c2[nH]c(-c3ccc(OCC(=O)Nc4ccc(F)cc4)cc3OC)cc2n(CCC)c1=O | 27 | – | 16 | 43 |
| COCCCn1c(=O)c2[nH]c(-c3ccc(OCC(=O)Nc4ccc(F)cc4)cc3)cc2n(CCCOC)c1=O | 68 | – | 24 | 20 |

The next lines start with the values.

| inhibition [1] [%] | Ki (Adenosine receptor A2b) [nM] | inhibition [2] [%] | inhibition (Adenosine receptor A2a) [%] | Structure (SMILES) |
| --- | --- | --- | --- | --- |
| 97 | 5.89 | 51 | 24 | CCCn1c(=O)c2[nH]c(-c3ccc(OCC(=O)Nc4ccc(I)cc4)cc3)cc2n(C)c1=O |
| 51 | 77.6 | 11 | 13 | CCCn1c(=O)c2[nH]c(-c3ccc(OCC(=O)Nc4ccc(C(=O)c5ccccc5)cc4)cc3)cc2n(CCC)c1=O |
| 62 | 20 | 24 | 15 | CCCn1c(=O)c2[nH]c(-c3ccc(OCC(=O)Nc4ccc(C(C)=O)cc4)cc3)cc2n(CCC)c1=O |
| 15 | 269 | – | 5 | COc1cc(-c2cc3c([nH]2)c(=O)n(C)c(=O)n3C)ccc1OCC(=O)O |
| 53 | 200 | 10 | 37 | CCCn1c(=O)c2[nH]c(-c3ccc(OCC(=O)Nc4ccc(S(N)(=O)=O)cc4)cc3)cc2n(CCC)c1=O |
| 76 | 20.4 | 33 | 20 | CCCn1c(=O)c2[nH]c(-c3ccc(OCC(=O)NCc4ccc(Cl)cc4)cc3)cc2n(C)c1=O |
| 10 | – | 14 | 6 | CCCn1c(=O)c2[nH]c(-c3ccc(OCC(=O)O)cc3Cl)cc2n(CCC)c1=O |
| 60 | – | 25 | 34 | CCCn1c(=O)c2[nH]c(-c3ccc(OCC(=O)Nc4cc(C)ccn4)cc3)cc2n(CCC)c1=O |
| 84 | – | 32 | 65 | CCCn1c(=O)c2[nH]c(-c3ccc(OC(C(=O)Nc4ccc(F)cc4)c4ccccc4)cc3)cc2n(CCC)c1=O (configuration not stated) |
| 68 | – | 22 | 18 | O=C(COc1ccc(-c2cc3c([nH]2)c(=O)n(CC(F)(F)F)c(=O)n3CC(F)(F)F)cc1)Nc1ccc(F)cc1 |
| 46 | – | 10 | 61 | CCCn1c(=O)c2[nH]c(-c3ccc(N(C=O)CC(=O)Nc4ccccc4)cc3)cc2n(CCC)c1=O |
